Measurements reported in patent US20140378395A1, “Peptides for the Treatment of Hearing” (13Therapeutics, Inc., priority 2011, published 2014).
No end group written: not given here.

Legend:
[1] = system: BALB/c mice; test: Effects of peptide on middle ear without added bacteria; type: in vivo, mouse; conditions: 10 μM, no bacteria, 3 days; p=0.104, 0.880, 0.891
Protocol: BALB/c (Bagg albino) mice, about 8-12 weeks of age, are anesthetized with a subcutaneous injection of xylazine & ketamine (about 0.1 mg/30 gm body weight) and their ears examined under the operating microscope to assure they are free of infection or perforation. One group of animals is injected with PBS (Phospho-buffered saline) in one ear and with about 10 μM of a peptide of Table 1 in the opposite ear, to determine the effect of peptide without added bacteria. A second group of animals receive about 5.0 μl of PBS plus heat-inactivated S. pneumoniae (about 10^9 CFU/ml) in one ear and about 5.0 μl of peptide (about 10 μM) plus heat-inactivated S. pneumoniae (about 10^9 CFU/ml) in the opposite ear. […] Inflammation is quantified by measuring 1) area of fluid present in the middle ear; 2) number of cells in middle ear fluid; and 3) thickness of the tympanic membrane (TM) taken at a point away from the injection site. Data are obtained from mice (n=18) injected with PBS alone for each of the histological parameters measured, to serve as a control group.
Five mice were injected in one ear with PBS and in the opposite ear with 10 μM peptide P13 (SEQ ID NO: 369). Three days later the animals were killed, and the middle ears embedded, sectioned, stained and evaluated for fluid area, infiltrating cell number, and thickness of the tympanic membrane. […]

[2] = system: BALB/c mice; test: Ototoxicity of topical administration in normal mice, ABR; type: in vivo, mouse; conditions: 1, 10, 10 (twice) or 60 μg/30 μL topically; ABR 1-4 weeks
Protocol: P13 (SEQ ID NO: 369) was investigated for possible negative impact on hearing in normal mice upon administration by ear drops. BALB/c mice, 16 weeks of age, (n=16) received two baseline auditory brainstem response (ABR) tests one week apart, and an otoscopic exam in both ears. ABR stimuli consisted of 20 tone-burst trains at 4 kHz, 8 kHz, 16 kHz and 32 kHz at five intensity levels in 10 dB steps, as previously described. An otoscopic exam was performed using an operating microscope to establish the clinical symptoms of AOM, as previously described. Any animal with an abnormal ABR or exam on pre-screen was not entered into the study.
All 16 animals remained in the study and were divided into five groups as follows:
group 1: (n=6 ears) 1 μg P13 (SEQ ID NO: 369)/30 μl, topically, given once;
group 2: (n=7 ears) 10 μg P13 (SEQ ID NO: 369)/30 μL, topically, given once;
group 3: (n=7 ears) 10 μg P13 (SEQ ID NO: 369)/30 μL, topically, given twice, 24 hours apart;
group 4: (n=6 ears) 60 μg P13 (SEQ ID NO: 369)/30 μL, topically, given once; and
ABRs were performed at one, two, three and four weeks post P13 (SEQ ID NO: 369) treatment. The two baseline ABRs were averaged and compared to the ABRs post P13 (SEQ ID NO: 369) treatment.

[3] = system: TNF-α production in RAW264.7 cells; type: cell-based, murine; conditions: 30 μg/mL, 15 minutes pre-incubation, 4 hours

Row | Sequence | differences between PBS-injected ear and P13-injected ear in fluid area, cell number, tympanic membrane thickness [1] | impact on hearing thresholds in normal mice (ototoxicity) [2] | NCE-stimulated TNF-α production compared to control peptide [3]
1 | DIVKLTVYDCI [Peptide P13, DIVKLTVYDCI] | no differences | did not negatively impact hearing thresholds | –
2 | EEYFMYRGLLGLRIKYG [Peptide P7] | – | – | significantly inhibited
